According to PubChem BioAssay AID228 (DTP/NCI, 2004):
Values joined by “and” are separate entries in the source; they are usually repeats but may differ in a detail not shown here. Equal values may be shown once. Inconclusive results are not listed. Starred links: 1 amine or outer side, 2 acyl side, 3 side chain; linkers in the order of their positions; H or OH if unused. Positions of bridges follow the written chain, without caps; N, C: chain ends. Non-standard residues stand in square brackets, D forms with d. Residues, ends and D or L forms follow the SMILES beside them. Chains are numbered I, II in the order given. Actinocin(9to1) = Cc1c2oc3c(C)ccc(C(=O)[*:1])c3nc-2c(C(=O)[*:2])c(N)c1=O; aThr = C[C@H](O)[C@H](N)C(=O)O; NMeV = CN[C@H](C(=O)O)C(C)C; Sar = CNCC(=O)O

Test system: BDF1 mice, Friend leukemia sc, tumor weight T/C
Test: NCI In Vivo Anticancer Drug Screen. Data for tumor model Friend Virus Leukemia (Solid) (subcutaneous) in B6D2F1 (BDF1) mice
Settings: endpoint: mean tumor weight, schedule: Q01DX011 (ip), higher = larger tumour
Experimental: The antitumor activity of compounds was measured in mice bearing transplantable tumors. Survival or tumor size were measured and the results are expressed as the measurement made in the treated group (T) divided by the measurement made in the vehicle treated control group (C). The tumor model used in this assay is Friend Virus Leukemia (Solid) (subcutaneous) in B6D2F1 (BDF1) mice

[1] = dose: 2.0 mg/kg/injection, vehicle: carboxymethylcellulose (CMC)
[2] = dose: 4.0 mg/kg/injection, vehicle: carboxymethylcellulose (CMC)
[3] = dose: 12.5 mg/kg/injection, vehicle: carboxymethylcellulose (CMC)
[4] = dose: 25.0 mg/kg/injection, vehicle: carboxymethylcellulose (CMC)
[5] = dose: 50.0 mg/kg/injection, vehicle: carboxymethylcellulose (CMC)
[6] = dose: 100.0 mg/kg/injection, vehicle: carboxymethylcellulose (CMC)
[7] = dose: 3.0 mg/kg/injection, vehicle: carboxymethylcellulose (CMC)
[8] = dose: 15.0 mg/kg/injection, vehicle: carboxymethylcellulose (CMC)

Cc1c2oc3c(C)ccc(C(=O)N[C@@H]4C(=O)N[C@H](C(C)C)C(=O)N5CCC[C@H]5C(=O)N(C)CC(=O)N(C)[C@@H](C(C)C)C(=O)O[C@H]4C)c3nc-2c(C(=O)N[C@@H]2C(=O)N[C@H](C(C)C)C(=O)N3CCC[C@H]3C(=O)N(C)CC(=O)N(C)[C@@H](C(C)C)C(=O)O[C@H]2C)c(N)c1=O (I: [aThr][dV]P[Sar][NMeV] / II: [aThr][dV]P[Sar][NMeV]; ester I:1-I:C, II:1-II:C; linker I:N-II:N via Actinocin(9to1))
T/C (dose: 0.03 mg/kg/injection, vehicle: carboxymethylcellulose (CMC)): 86 % of control | T/C (dose: 0.05 mg/kg/injection, vehicle: carboxymethylcellulose (CMC)): 38 % of control and 49 % of control | T/C (dose: 0.08 mg/kg/injection, vehicle: carboxymethylcellulose (CMC)): 29 % of control | T/C (dose: 6.0 micrograms/kg/injection, vehicle: carboxymethylcellulose (CMC)): 102 % of control | T/C (dose: 13.0 micrograms/kg/injection, vehicle: carboxymethylcellulose (CMC)): 93 % of control | T/C (dose: 20.0 micrograms/kg/injection, vehicle: carboxymethylcellulose (CMC)): 55 % of control | T/C (dose: 33.0 micrograms/kg/injection, vehicle: carboxymethylcellulose (CMC)): 105 % of control

O=C(NO)c1ccncc1
T/C (dose: 250.0 mg/kg/injection, vehicle: saline): 79 % of control | T/C (dose: 500.0 mg/kg/injection, vehicle: saline): 78 % of control and 86 % of control | T/C (dose: 750.0 mg/kg/injection, vehicle: saline): 42 % of control and 48 % of control | T/C (dose: 950.0 mg/kg/injection, vehicle: saline): 7 % of control

OCC1OC(Oc2ccc(O)cc2)C(O)C(O)C1O (stereo not drawn)
T/C (dose: 25.0 mg/kg/injection, vehicle: saline): 84 % of control | T/C (dose: 50.0 mg/kg/injection, vehicle: saline): 97 % of control | T/C (dose: 100.0 mg/kg/injection, vehicle: saline): 97 % of control | T/C (dose: 200.0 mg/kg/injection, vehicle: saline): 75 % of control

c1ccc(CSc2ncnc3nc[nH]c23)nc1
T/C [1]: 88 % of control | T/C [2]: 46 % of control | T/C (dose: 9.0 mg/kg/injection, vehicle: carboxymethylcellulose (CMC)): 33 % of control and 39 % of control | T/C (dose: 18.0 mg/kg/injection, vehicle: carboxymethylcellulose (CMC)): 3 % of control and 7 % of control | T/C (dose: 37.0 mg/kg/injection, vehicle: carboxymethylcellulose (CMC)): 6 % of control and 18 % of control

S=P(N1CCOCC1)(N1CC1)N1CC1
T/C [3]: 71 % of control | T/C [4]: 41 % of control

c1ccc2[nH]cnc2c1
T/C (dose: 38.5 mg/kg/injection, vehicle: carboxymethylcellulose (CMC)): 82 % of control and 88 % of control | T/C (dose: 77.0 mg/kg/injection, vehicle: carboxymethylcellulose (CMC)): 80 % of control and 83 % of control | T/C (dose: 308.0 mg/kg/injection, vehicle: carboxymethylcellulose (CMC)): 102 % of control

CNC=O
T/C [3]: 80 % of control | T/C [4]: 57 % of control and 38 % of control | T/C (dose: 41.62 mg/kg/injection, vehicle: carboxymethylcellulose (CMC)): 124 % of control | T/C (dose: 42.0 mg/kg/injection, vehicle: carboxymethylcellulose (CMC)): 92 % of control | T/C (dose: 43.0 mg/kg/injection, vehicle: carboxymethylcellulose (CMC)): 79 % of control | T/C [5]: 43 % of control | T/C (dose: 83.25 mg/kg/injection, vehicle: carboxymethylcellulose (CMC)): 92 % of control | T/C (dose: 85.0 mg/kg/injection, vehicle: carboxymethylcellulose (CMC)): 91 % of control | T/C (dose: 86.0 mg/kg/injection, vehicle: carboxymethylcellulose (CMC)): 109 % of control | T/C [6]: 53 % of control | T/C (dose: 176.5 mg/kg/injection, vehicle: carboxymethylcellulose (CMC)): 91 % of control | T/C (dose: 200.0 mg/kg/injection, vehicle: carboxymethylcellulose (CMC)): 39 % of control | T/C (dose: 250.0 mg/kg/injection, vehicle: carboxymethylcellulose (CMC)): 84 % of control | T/C (dose: 275.0 mg/kg/injection, vehicle: carboxymethylcellulose (CMC)): 57 % of control | T/C (dose: 343.0 mg/kg/injection, vehicle: carboxymethylcellulose (CMC)): 41 % of control

NC(Cc1ccc(N(CCCl)CCCl)cc1)C(=O)O (stereo not drawn)
T/C (dose: 0.32 mg/kg/injection, vehicle: carboxymethylcellulose (CMC)): 101 % of control | T/C (dose: 0.64 mg/kg/injection, vehicle: carboxymethylcellulose (CMC)): 87 % of control | T/C (dose: 1.0 mg/kg/injection, vehicle: carboxymethylcellulose (CMC)): 65 % of control | T/C (dose: 1.28 mg/kg/injection, vehicle: carboxymethylcellulose (CMC)): 101 % of control | T/C [1]: 60 % of control | T/C (dose: 2.56 mg/kg/injection, vehicle: carboxymethylcellulose (CMC)): 70 % of control | T/C [7]: 57 % of control | T/C [2]: 32 % of control | T/C (dose: 5.0 mg/kg/injection, vehicle: carboxymethylcellulose (CMC)): 36 % of control | T/C (dose: 6.0 mg/kg/injection, vehicle: carboxymethylcellulose (CMC)): 13 % of control | T/C (dose: 8.0 mg/kg/injection, vehicle: carboxymethylcellulose (CMC)): 7 % of control

O=C(Nc1ccc(C2=NCCN2)cc1)c1ccc(C(=O)Nc2ccc(C3=NCCN3)cc2)c(Cl)c1
T/C (dose: 0.31 mg/kg/injection, vehicle: carboxymethylcellulose (CMC)): 66 % of control | T/C (dose: 0.5 mg/kg/injection, vehicle: carboxymethylcellulose (CMC)): 93 % of control | T/C (dose: 0.63 mg/kg/injection, vehicle: carboxymethylcellulose (CMC)): 50 % of control | T/C (dose: 1.25 mg/kg/injection, vehicle: carboxymethylcellulose (CMC)): 40 % of control and 46 % of control | T/C (dose: 2.5 mg/kg/injection, vehicle: carboxymethylcellulose (CMC)): 39 % of control | T/C (dose: 10.0 mg/kg/injection, vehicle: carboxymethylcellulose (CMC)): 93 % of control | T/C [8]: 21 % of control [middle of 4 runs] | T/C (dose: 20.0 mg/kg/injection, vehicle: carboxymethylcellulose (CMC)): 6 % of control

CS(=O)(=O)OCCCOS(C)(=O)=O
T/C [8]: 100 % of control | T/C (dose: 30.0 mg/kg/injection, vehicle: carboxymethylcellulose (CMC)): 98 % of control | T/C (dose: 60.0 mg/kg/injection, vehicle: carboxymethylcellulose (CMC)): 31 % of control and 46 % of control | T/C (dose: 120.0 mg/kg/injection, vehicle: carboxymethylcellulose (CMC)): 22 % of control

O=C(O)c1ccc(-c2ccccc2)cc1
T/C [5]: 103 % of control

C=CCn1c(=O)n(CC=C)c(=O)n(CC=C)c1=O
T/C (dose: 22.5 mg/kg/injection, vehicle: saline): 77 % of control | T/C (dose: 45.0 mg/kg/injection, vehicle: saline): 103 % of control | T/C (dose: 90.0 mg/kg/injection, vehicle: saline): 64 % of control | T/C (dose: 180.0 mg/kg/injection, vehicle: saline): 82 % of control

CC(C)(C)c1ccc(S)cc1
T/C [4]: 181 % of control | T/C [5]: 121 % of control | T/C [6]: 85 % of control

CCCCSc1ncnc2nc[nH]c12
T/C (dose: 16.0 mg/kg/injection, vehicle: saline): 101 % of control | T/C (dose: 31.0 mg/kg/injection, vehicle: saline): 121 % of control | T/C (dose: 62.0 mg/kg/injection, vehicle: saline): 99 % of control | T/C (dose: 125.0 mg/kg/injection, vehicle: saline): 62 % of control

Cc1nc(N)nc(N)c1-c1ccc(Cl)c(Cl)c1
T/C (dose: 0.75 mg/kg/injection, vehicle: carboxymethylcellulose (CMC)): 96 % of control | T/C (dose: 1.5 mg/kg/injection, vehicle: carboxymethylcellulose (CMC)): 105 % of control | T/C [7]: 59 % of control
